The target in one series is Protease (Human immunodeficiency virus 1, UniProt Q9YQ12). Description: Inhibition of wild-type HIV1 protease expressed in Escherichia coli assessed as reduction in product formation preincubated for 30 mins followed by addition of Val-Ser-Gln-Asn-(beta-naphtyl)Ala-Pro-Ile-Val as substrate measured after 1 hr.
In series [1] the test system is Human immunodeficiency virus 1. As to the kind of experiment: Antiviral activity against HIV-1 infected in human MT4 cells assessed as inhibition of viral infection measured after 72 hrs. Type of series: functional. The settings on record: Human immunodeficiency virus 1, MT4, 72 h.
A short description of series [2]: Clearance in rat at 1 mg/kg, iv or 5 mg/kg, po. Type of series: ADME, organism-based. The settings on record: in vivo.
The nature of series [3]: Oral bioavailability in rat at 5 mg/kg. The settings on record: in vivo. The series is classed as ADME, organism-based.
Series [4] relates to Human immunodeficiency virus. As to the kind of experiment: Inhibition of HIV protease at 1 uM.
Series [5] can be described thus: Clearance in rat at 2 mg/kg, iv or 10 mg/kg, po. The settings on record: in vivo. Type of series: ADME, organism-based.
Series [6] in a line: Oral bioavailability in rat at 10 mg/kg. The series is classed as ADME, organism-based. The settings on record: in vivo.

A value given as a limit tells only on which side of the number the result lay.

Protease, sequence (Q9YQ12 whole entry): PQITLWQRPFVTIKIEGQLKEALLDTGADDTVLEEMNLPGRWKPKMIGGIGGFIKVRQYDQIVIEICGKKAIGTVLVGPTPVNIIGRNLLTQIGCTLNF

Turning to `COC(=O)N[C@H](C(=O)Nc1ccccc1CC[C@@H]1CN[C@H](COC(=O)N[C@@H]2CCc3ccccc32)CO1)C(c1ccccc1)c1ccccc1`, the IC50 (usually the concentration that gives 50% inhibition) on Protease amounted to 9.7 nM. The IC95 (commonly the concentration needed for an effect of 95%) in series [1] is 370 nM. The clearance in series [2] came out at 110 mL/min/kg. Further, the bioavailability – broadly, the share of a dose that reaches the circulation, judged against a reference dose that is usually intravenous – in series [3] is less than 5%.
For `COC(=O)N[C@H](C(=O)NCCCC1CNCCO1)C(c1ccccc1)c1ccccc1` (stereo partly drawn), the inhibition (usually how much of the control response was suppressed) in series [4] was found to be 11%.
Regarding `COC(=O)N[C@H](C(=O)Nc1ccccc1CC[C@@H]1CN[C@H](COC(=O)NC(C)C)CO1)C(c1ccccc1)c1ccccc1`, at Protease, the IC50 turned out to be 37 nM. Further, the IC95 in series [1] was 190 nM. Moreover, in series [2], the clearance came out at 60 mL/min/kg. In series [3], the bioavailability was 33%.
Regarding `COC(=O)N[C@H](C(=O)N[C@@H](Cc1ccccc1)[C@@H](O)CN(Cc1ccc(-c2ccccn2)cc1)NC(=O)[C@@H](NC(=O)OC)C(C)(C)C)C(C)(C)C` [ATAZANAVIR], the IC50 on Protease stood at 0.04 nM. In addition, the IC95 in series [1] came out at 17 nM.
`COC(=O)N[C@H](C(=O)Nc1ccccc1CC[C@@H]1CN[C@H](COC(=O)NCC(F)(F)F)CO1)C(c1ccccc1)c1ccccc1`: the IC50 on Protease worked out at 27 nM. The IC95 in series [1] was found to be 120 nM. Also, the clearance in series [2] was determined as 36 mL/min/kg. For the same compound, the bioavailability in series [3] amounted to 19%.
Consider `N[C@H](C(=O)Nc1cncc(F)c1CC[C@@H]1CN[C@H](COC(=O)NCC(F)(F)F)CO1)C(c1ccccc1)c1ccccc1`, for which, at Protease, the IC50 turned out to be 9.9 nM. For the same compound, the IC95 in series [1] turned out to be 150 nM. Moreover, the clearance in series [5] was determined as 13 mL/min/kg. Also, in series [6], the bioavailability is 59%.
In the case of `COC(=O)N[C@H](C(=O)Nc1cccc(F)c1CC[C@@H]1CN[C@H](COC(=O)NCC(F)(F)F)CO1)C(c1ccccc1)c1ccccc1`, the IC50 on Protease was found to be 12 nM. Also, in series [1], the IC95 turned out to be 95 nM. The compound further came in with a clearance in series [2] of 36 mL/min/kg. The compound further yielded a bioavailability in series [3] of 37%.
Turning to `N[C@H](C(=O)Nc1cncc(F)c1CC[C@@H]1CN[C@H](COC(=O)NCC(F)(F)F)CO1)[C@@H](c1ccc(F)cc1)c1cc(F)cc(F)c1`, the IC50 on Protease worked out at 2.4 nM. Also, in series [1], the IC95 is 130 nM.
`COC(=O)N[C@H](C(=O)Nc1ccccc1CC[C@@H]1CN[C@H](COC(=O)NCc2cccc(Cl)n2)CO1)C(c1ccccc1)c1ccccc1`: at Protease, the IC50 is 3.4 nM. Besides, the IC95 in series [1] was found to be 150 nM. Besides, the clearance in series [2] came to 45 mL/min/kg. Besides, in series [3], the bioavailability worked out at 17%.
Take `N[C@H](C(=O)Nc1cccc(F)c1CC[C@@H]1CN[C@H](COC(=O)NCC(F)(F)F)CO1)[C@@H](c1ccc(F)cc1)c1cccc(F)c1`: the IC50 at Protease amounted to 6.4 nM. Further, the IC95 in series [1] is 75 nM. For the same compound, the clearance in series [5] was determined as 45 mL/min/kg. The bioavailability in series [6] amounted to 30%.
In the case of `COC(=O)N[C@H](C(=O)Nc1ccccc1CC[C@@H]1CN[C@H](COC(=O)NCc2ccc(Cl)s2)CO1)C(c1ccccc1)c1ccccc1`, the IC50 on Protease was found to be 2.4 nM. In series [1], the IC95 was found to be 170 nM. In series [2], this compound yielded a clearance of 33 mL/min/kg. In series [3], this compound showed a bioavailability of 13%.
The matching figures for `COC(=O)N[C@H](C(=O)Nc1ccccc1CC[C@@H]1CN[C@H](COC(=O)N[C@H]2CCc3ccccc32)CO1)C(c1ccccc1)c1ccccc1`: 3.5 nM, 63 nM, 87 mL/min/kg and less than 5%.
Consider `N[C@H](C(=O)Nc1cccc(F)c1CC[C@@H]1CN[C@H](COC(=O)NCC(F)(F)F)CO1)[C@@H](c1ccc(F)cc1)c1cc(F)cc(F)c1`, for which the IC50 on Protease came to 8.2 nM. The IC95 in series [1] stood at 61 nM. The clearance in series [5] came to 22 mL/min/kg. In series [6], this compound came in with a bioavailability of 14%.
The matching figures for `N[C@H](C(=O)Nc1cncc(F)c1CC[C@@H]1CN[C@H](COC(=O)NCC(F)(F)F)CO1)[C@@H](c1ccc(F)cc1)c1cccc(F)c1`: 2.4 nM, 66 nM, 16 mL/min/kg and 37%.
Take `COC(=O)N[C@H](C(=O)Nc1cncc(F)c1CC[C@@H]1CN[C@H](COC(=O)NCC(F)(F)F)CO1)C(c1ccccc1)c1ccccc1`: at Protease, the IC50 stood at 3.5 nM. Also, the IC95 in series [1] was 94 nM. The compound also returned a clearance in series [2] of 11 mL/min/kg. This compound also returned a bioavailability in series [3] of 15%.
As for `N[C@H](C(=O)Nc1cncc(F)c1CC[C@@H]1CN[C@H](COC(=O)NCC(F)(F)F)CO1)[C@@H](c1ccc(Cl)cc1)c1cc(F)cc(F)c1`, at Protease, the IC50 stood at 0.8 nM. The IC95 in series [1] came to 49 nM. The same compound had a clearance in series [5] of 11 mL/min/kg. This compound displayed a bioavailability in series [6] of 25%.
Consider `N[C@H](C(=O)Nc1cccc(F)c1CC[C@@H]1CN[C@H](COC(=O)NCC(F)(F)F)CO1)C(c1ccccc1)c1ccccc1`, for which the concentration for half-maximal inhibition (IC50) on Protease worked out at 3.1 nM. Also, in series [1], the IC95 was found to be 230 nM.
For `COC(=O)N[C@H](C(=O)Nc1ccccc1CC[C@@H]1CN[C@H](COC(N)=O)CO1)C(c1ccccc1)c1ccccc1`, the IC50 on Protease was 20 nM. In series [1], the IC95 is 120 nM. Moreover, the clearance in series [2] turned out to be 30 mL/min/kg. This compound gave a bioavailability in series [3] of 16%.
Taken in the same sequence, the figures for `COC(=O)N[C@H](C(=O)Nc1ccccc1CC[C@@H]1CN[C@H](COC(=O)NCc2ccccc2)CO1)C(c1ccccc1)c1ccccc1` were 6.1 nM, 200 nM, 27 mL/min/kg and less than 5%.
Taken in the same sequence, the figures for `COC(=O)N[C@H](C(=O)Nc1ccccc1CC[C@@H]1CN[C@H](COC(=O)NCc2ccc(F)cc2)CO1)C(c1ccccc1)c1ccccc1` were 4.1 nM, 170 nM, 49 mL/min/kg and 47%.
Take `COC(=O)N[C@H](C(=O)Nc1ccccc1CC[C@@H]1CN[C@H](COC(=O)NCc2ccccc2F)CO1)C(c1ccccc1)c1ccccc1`: the IC50 on Protease worked out at 3.6 nM. Further, the IC95 in series [1] is 180 nM. For the same compound, the clearance in series [2] is 61 mL/min/kg.
In the case of `COC(=O)N[C@H](C(=O)Nc1cnccc1CC[C@@H]1CN[C@H](COC(=O)NCC(F)(F)F)CO1)C(c1ccccc1)c1ccccc1`, the concentration for half-maximal inhibition (IC50) at Protease is 14 nM. In series [1], the IC95 worked out at 330 nM. This compound also had a clearance in series [2] of 81 mL/min/kg. This compound showed a bioavailability in series [3] of less than 5%.
